{
  "source": "patent US10973850B2",
  "about": "“Composition comprising tricalcium phosphate and gelatin for use in a method for the treatment of dyspepsia and related disorders” (S.B.M. S.R.L., priority 2015, dated 2021)",
  "test": "Protective effect: time to perforation of a sheet of wheat starch exposed to concentrated HCl",
  "details": "end point a clear-cut hole",
  "method": "The barrier-like effect of gelatin was experimentally assessed. A Sheet of wheat starch was exposed to a concentrated solution of HCl. The protective action was measured as an extension of time to perforation in comparison to control. The end consisted of a clear-cut hole.\nThe new threshold matched the potentially dangerous HCl concentration in the stomach at the above-mentioned ration, corresponding to about 6 parts of gelatin to 1 part of TCP.",
  "data": [
    {"smiles": "O=P([O-])([O-])[O-].O=P([O-])([O-])[O-].[Ca+2].[Ca+2].[Ca+2]", "note": "[TCP, tricalcium phosphate]", "values": [
      {"measurement": "protective action, extension of time to perforation in comparison to control", "result": "almost equally effective"}
    ]}
  ]
}
